Test results: patent US20230091608A1, “COMPOUND AND DIAGNOSTIC SYSTEM COMPRISING SAID COMPOUND FOR THE GUSTATORY DETECTION OF INFLAMMATIONS IN THE ORAL CAVITY” (Julius-Maximilians-Universitaet Wuerzburg, priority 2019, published 2023)

Each compound was assayed on aminopeptidase (AP) (assay: Cleavage of [Ia-X] constructs by aminopeptidase (AP), LC/MS for complete degradation).
Type: biochemical
Experimental: To trigger maximum gustatory perception, the last amino acid from the modified denatonium must also be removed by the aminopeptidase.
The resulting constructs were incubated with AP for 24 h and analyzed by LC/MS for complete degradation (Table 2).

Row | Compound | Detectable after 24 h incubation with AP
1 | N[C@@H](CS)C(=O)O [Cysteine] | −
2 | N[C@@H](Cc1c[nH]c2ccccc12)C(=O)O [Tryptophan] | +
3 | Lysine | −
4 | CC[C@H](C)[C@H](N)C(=O)O [Isoleucine] | +
5 | N[C@@H](Cc1c[nH]cn1)C(=O)O [Histidine] | +
6 | N[C@@H](CC(=O)O)C(=O)O [Aspartic acid] | +
7 | N[C@@H](CO)C(=O)O [Serine] | −
8 | Arginine | −
9 | NCC(=O)O [Glycine] | +
10 | CC(C)C[C@H](N)C(=O)O [Leucine] | −
11 | Tyrosine | −
12 | Alanine | −
13 | Proline | +
14 | NC(=O)CC[C@H](N)C(=O)O [Glutamine] | +
15 | CC(C)[C@H](N)C(=O)O [Valine] | +
16 | C[C@@H](O)[C@H](N)C(=O)O [Threonine] | +
17 | N[C@@H](CCC(=O)O)C(=O)O [Glutamic acid] | −
18 | NC(=O)C[C@H](N)C(=O)O [Asparagine] | +
19 | N[C@@H](Cc1ccccc1)C(=O)O [Phenylalanine] | −
20 | CSCC[C@H](N)C(=O)O [Methionine] | −
